Test results taken from US10537563B2, “Methods for treating ocular disease using inhibitors of CSF-1R” (NOVARTIS AG, priority 2016, dated 2020).

Legend:
VEGF = assay: Interaction with VEGF versus CSF-1 receptor signaling; details: at concentrations where the signaling of the CSF-1 receptor is strongly or completely inhibited
[1] = tested on: macrophages in areas around the ciliary body; assay: Macrophages around the ciliary body in CX3CR1-GFP reporter mice; type: in vivo, mouse; details: salt of Compound (Ia), oral 200 mg/kg daily for 14 days
Protocol: To investigate the effects of CSF-1R inhibition on inflammation, Compound (Ia) was assessed in CX3CR1-GFP reporter mice (which report on macrophage and microglia). The presence of macrophages in areas around the ciliary body in the front of the eye (but not in the cornea) was examined and confirmed by anti-GFP immunohistochemistry staining (see panels (a) and (b) in FIG. 4). The arrow-indicated dots are the positive stained macrophage cells).
In this experiment, mice was treated with a salt of Compound (Ia) orally at 200 mg/kg daily for 14 days and immediately examined for the presence of macrophages (see panels (c) and (d) in FIG. 4).

[2] = tested on: choroidal neovascularization; assay: Laser-induced choroidal neovascularization model, CNV area; type: in vivo, mouse; details: oral daily, 30, 100 or 200 mg/kg, dose dependent; tissues harvested day 7
Protocol: To investigate the effects of CSF-1R inhibition on ocular angiogenesis and inflammation, Compound (Ia) was assessed in a rodent model of laser-induced choroidal neovascularization (methods below) for effect on blood vessel growth and cellular infiltration after a laser injury. Compound (Ia) was assessed either as a monotherapy or in combination with a suboptimal dose of a VEGF antibody.
(§1) In one experiment, Compound (Ia) or vehicle was dosed orally at 30, 100 or 200 mg/kg starting about 1 hour before laser and continued administration daily until the day before tissue harvest.
(§2) In a second experiment, mice were dosed daily with 50 mg/kg of Compound (Ia) and with i.p. injections of a mouse anti-VEGF antibody at a dose of 0.3 mg/kg at day 0, 2 and 4. Other groups of mice in the experiment were dosed with monotherapy of Compound (Ia) or the anti-VEGF antibody at higher doses.
Mouse pupils were dilated with one drop (˜40 μL) of 1% cyclopentolate. Just before anesthesia, pupil dilation was maximized with an additional drop of phenylephrine (usually 10% but occasionally 2.5% depending upon availability). […]
Analysis of neovascularization was completed on tissues harvested 7 days after laser photocoagulation. […] CNV area was quantified using a semi-automated analysis program (Axiovision software version 4.5, Carl Zeiss Microscopy) that outlined the fluorescent blood vessels. […]

retinal F4/80+ cells = assay: Cellular infiltration assay in laser CNV model, retinal F4/80+ macrophages; type: in vivo, mouse
Protocol: as §1, §2
(§3) Cellular infiltration into the retina, the PEC or the CNV lesion was assessed after laser application. Eyes were fixed with 4% Paraformaldehyde for ˜90 minutes. After fixation, whole eyes were dissected into the retina and PEC. […]
(§4) Iba1+ cells in the PEC peripheral to the CNV lesion were counted using a different semi-automatic MatLab code. […] The operator is then presented with masked, randomized images and allowed the functionality to remove miscellaneous fluorescence (false positive) and add missed cells (false negative) to the analysis. Confluent microglia cells and CNV lesions were excluded from the quantification analysis. In a study, each assessed condition consisted of 10 eyes from 5 mice and would typically yield 10 data points. […] F4/80+ cells in the retina were counted using a similar semi-automatic MatLab code and followed the same procedure as above. […]

subretinal Iba1+ cells = assay: Cellular infiltration assay in laser CNV model, subretinal Iba1+ microglia; type: in vivo, mouse
Protocol: as §1, §2, §3, §4

| interaction with VEGF (VEGF) | SMILES | macrophages in areas around the ciliary body, day 14 ([1]; day 14) | macrophages in areas around the ciliary body, day 21 ([1]; day 21) | macrophages in areas around the ciliary body, day 44 ([1]; day 44) | reduction in CNV area compared to vehicle [2] [%] | reduction in retinal F4/80+ cells (macrophages) (retinal F4/80+ cells; 200 mg/kg oral) | macrophages in the retina (retinal F4/80+ cells; 50 and 200 mg/kg) | reduction in subretinal Iba1+ cells (microglia) (subretinal Iba1+ cells; 200 mg/kg oral) | microglia in the subretinal space (subretinal Iba1+ cells; 50 and 200 mg/kg) |
| --- | --- | --- | --- | --- | --- | --- | --- | --- | --- |
| not to interact strongly | CNC(=O)c1cc(Oc2ccc3nc(N[C@H]4CCCC[C@@H]4O)sc3c2)ccn1 [Compound (Ib), 4-((2-(((1S,2S)-2-hydroxycyclohexyl)amino)benzo[d]thiazol-6-yl)oxy)-N-methylpicolinamide] | – | – | – | – | – | – | – | – |
| not to interact strongly | CNC(=O)c1cc(Oc2ccc3nc(N[C@@H]4CCCC[C@H]4O)sc3c2)ccn1 [Compound (Ia), 4-((2-(((1R,2R)-2-hydroxycyclohexyl)amino)benzo[d]thiazol-6-yl)oxy)-N-methylpicolinamide] | depleted | started to return | almost back to steady state | 75 | 83-84% | significantly reduced | 66-99% | significantly reduced |
